Results: PMC5904165, “Insight into the cold adaptation and hemicellulose utilization of Cladosporium neopsychrotolerans from genome analysis and biochemical characterization” (Scientific Reports, 2018)

Tests used:
[1] = target: T1, Xyl43A; assay: inhibition of pNPX hydrolysis, Dixon plot; type: biochemical, Cladosporium neopsychrotolerans; details: pNPX substrate, McIlvaine buffer pH 6.8, room temperature, 10 min; mode not stated
T1 construct: intracellular enzyme

[2] = test system: T1, Xyl43A; assay: p-nitrophenol release, Michaelis-Menten fit; type: biochemical, Cladosporium neopsychrotolerans; details: 35 °C (optimum), optimal pH; 1-10 mM pNPX used, so the table's unit mg/mL may be doubtful
From the text: p-nitrophenol release, Michaelis-Menten fit on Xyl43A

OC1OC[C@@H](O)[C@H](O)[C@H]1O (stereo partly drawn) [D-xylose] gave a Ki [1] of 43.3 mM.
O=[N+]([O-])c1ccc(O[C@@H]2OC[C@@H](O)[C@H](O)[C@H]2O)cc1 [pNPX] was tested, and the “Xyl43A / 35 °C (Topt)” value [2] was 2.73 ± 0.37 mg/mL.
